Laboratory results as given in ChEMBL document CHEMBL1201862, “PubChem BioAssay data set” (2004).
The source made the active and inactive calls.

Experiments:
[1] = molecular target: T1, Short transient receptor potential channel 4 (Mus musculus, UniProt Q9QUQ5); test: mouse TRPC4 channel activators, dose response, cell-based, HEK293 TRPC4/mu-opioid, Fluo-4 calcium (AID 434937); type: functional
T1 sequence (Q9QUQ5 whole entry): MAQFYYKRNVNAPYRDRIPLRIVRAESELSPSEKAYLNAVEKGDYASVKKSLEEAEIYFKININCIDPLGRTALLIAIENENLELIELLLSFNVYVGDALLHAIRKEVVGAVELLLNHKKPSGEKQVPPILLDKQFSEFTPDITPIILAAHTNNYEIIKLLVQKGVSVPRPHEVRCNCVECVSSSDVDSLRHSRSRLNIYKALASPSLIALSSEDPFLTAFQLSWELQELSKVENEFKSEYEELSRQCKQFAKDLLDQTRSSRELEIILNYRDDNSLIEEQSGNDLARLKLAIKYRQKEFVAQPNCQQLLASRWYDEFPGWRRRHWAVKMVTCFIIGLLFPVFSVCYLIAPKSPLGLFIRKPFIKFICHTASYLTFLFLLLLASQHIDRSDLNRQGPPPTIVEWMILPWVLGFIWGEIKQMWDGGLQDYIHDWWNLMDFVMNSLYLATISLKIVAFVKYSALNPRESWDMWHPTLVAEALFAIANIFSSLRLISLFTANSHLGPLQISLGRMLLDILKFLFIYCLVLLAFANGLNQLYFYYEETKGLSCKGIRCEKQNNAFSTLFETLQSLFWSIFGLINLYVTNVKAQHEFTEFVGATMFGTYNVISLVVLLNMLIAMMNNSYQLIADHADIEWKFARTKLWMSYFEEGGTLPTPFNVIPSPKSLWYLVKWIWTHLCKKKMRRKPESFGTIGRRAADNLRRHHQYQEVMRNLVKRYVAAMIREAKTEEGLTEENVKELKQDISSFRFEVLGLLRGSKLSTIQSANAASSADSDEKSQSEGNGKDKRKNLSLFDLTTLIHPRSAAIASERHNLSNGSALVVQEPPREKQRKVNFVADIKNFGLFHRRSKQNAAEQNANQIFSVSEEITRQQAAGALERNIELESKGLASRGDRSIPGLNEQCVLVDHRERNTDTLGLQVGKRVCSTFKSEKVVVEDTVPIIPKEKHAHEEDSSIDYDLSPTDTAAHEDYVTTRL

INS1 = test: beta cell apoptosis inhibitors, cytokine rescue, dose response, luminescence, retest (AID 449756); type: functional, cell-based; settings: Rattus norvegicus;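 further: cell death triggered by IL-1 beta plus TNF-alpha plus IFN-gamma mixture; protective hits raise ATP signal compared with cytokine alone wells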
[2] = molecular target: T2, Ubiquitin-conjugating enzyme E2 N (Homo sapiens, UniProt P61088); type: functional
T2 sequence (P61088 whole entry): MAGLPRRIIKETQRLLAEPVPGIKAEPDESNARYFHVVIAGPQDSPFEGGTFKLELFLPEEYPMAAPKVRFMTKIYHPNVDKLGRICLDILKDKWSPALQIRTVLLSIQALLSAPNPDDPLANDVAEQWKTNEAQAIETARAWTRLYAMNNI

Bcl-2-related protein A1 = molecular target: T3, Bcl-2-related protein A1 (Mus musculus, UniProt Q07440); type: functional;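 further: confirmatory dose–response counterscreen on Bfl-1, used to check hits from a UBC13 polyubiquitin inhibitor campaign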
T3 sequence (Q07440 whole entry): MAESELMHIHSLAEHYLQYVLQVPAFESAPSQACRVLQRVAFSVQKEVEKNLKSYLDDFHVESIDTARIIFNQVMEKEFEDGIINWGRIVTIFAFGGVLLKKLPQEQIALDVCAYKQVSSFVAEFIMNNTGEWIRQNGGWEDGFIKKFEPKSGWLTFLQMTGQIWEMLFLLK

[3] = molecular target: T2, Ubiquitin-conjugating enzyme E2 N; type: functional; remark: listed apart in the source
Coagulation factor XII = molecular target: T4, Coagulation factor XII (Homo sapiens, UniProt P00748); type: functional;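 further: activated factor XIIa alpha cleaving a fluorogenic AMC peptide substrate; inhibitor potency from loss of enzyme activity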
T4 sequence (P00748 whole entry): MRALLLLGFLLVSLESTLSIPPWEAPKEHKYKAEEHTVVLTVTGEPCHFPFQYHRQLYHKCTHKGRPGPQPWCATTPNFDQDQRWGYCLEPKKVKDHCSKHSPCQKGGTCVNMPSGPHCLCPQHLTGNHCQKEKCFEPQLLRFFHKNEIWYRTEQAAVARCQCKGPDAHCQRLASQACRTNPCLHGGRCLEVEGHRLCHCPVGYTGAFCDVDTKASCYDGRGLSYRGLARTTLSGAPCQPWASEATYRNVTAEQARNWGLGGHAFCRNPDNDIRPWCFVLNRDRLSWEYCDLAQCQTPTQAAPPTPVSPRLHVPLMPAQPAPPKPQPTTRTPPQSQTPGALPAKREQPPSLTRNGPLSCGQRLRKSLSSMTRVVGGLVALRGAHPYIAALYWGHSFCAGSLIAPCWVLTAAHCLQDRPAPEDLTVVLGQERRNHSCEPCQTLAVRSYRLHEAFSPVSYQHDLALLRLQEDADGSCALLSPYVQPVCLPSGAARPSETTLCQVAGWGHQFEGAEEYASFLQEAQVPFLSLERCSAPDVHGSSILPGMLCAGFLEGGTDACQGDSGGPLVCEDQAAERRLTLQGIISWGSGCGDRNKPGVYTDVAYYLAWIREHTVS

[4] = molecular target: Peroxisome proliferator-activated receptor gamma/Nuclear receptor coactivator 2 (Homo sapiens, UniProt P37231); test: TR-FRET dose response biochemical High Throughput Screening assay for agonists of the steroid receptor coactivator 2 (SRC-2) recruitment by the peroxisome proliferator-activated receptor gamma (PPAR gamma): non-selective agonists. [Related pubchem assays: 1297, 1032 ]; type: functional
Sequence of Peroxisome proliferator-activated receptor gamma/Nuclear receptor coactivator 2 (P37231 whole entry): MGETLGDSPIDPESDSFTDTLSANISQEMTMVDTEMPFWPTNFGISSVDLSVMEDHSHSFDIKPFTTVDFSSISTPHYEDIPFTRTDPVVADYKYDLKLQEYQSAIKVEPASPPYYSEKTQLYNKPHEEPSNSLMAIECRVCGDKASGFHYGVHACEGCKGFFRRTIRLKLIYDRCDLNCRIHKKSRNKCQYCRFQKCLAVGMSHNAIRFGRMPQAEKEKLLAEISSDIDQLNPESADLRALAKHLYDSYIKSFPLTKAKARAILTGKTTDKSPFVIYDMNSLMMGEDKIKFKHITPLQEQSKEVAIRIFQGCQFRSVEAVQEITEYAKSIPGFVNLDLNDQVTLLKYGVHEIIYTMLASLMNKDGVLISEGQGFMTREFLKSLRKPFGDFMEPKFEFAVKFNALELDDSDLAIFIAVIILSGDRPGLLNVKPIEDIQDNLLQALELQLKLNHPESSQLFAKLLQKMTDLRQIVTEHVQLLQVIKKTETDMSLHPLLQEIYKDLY
Sequence of Peroxisome proliferator-activated receptor gamma/Nuclear receptor coactivator 2 (Q15596 whole entry, further chain): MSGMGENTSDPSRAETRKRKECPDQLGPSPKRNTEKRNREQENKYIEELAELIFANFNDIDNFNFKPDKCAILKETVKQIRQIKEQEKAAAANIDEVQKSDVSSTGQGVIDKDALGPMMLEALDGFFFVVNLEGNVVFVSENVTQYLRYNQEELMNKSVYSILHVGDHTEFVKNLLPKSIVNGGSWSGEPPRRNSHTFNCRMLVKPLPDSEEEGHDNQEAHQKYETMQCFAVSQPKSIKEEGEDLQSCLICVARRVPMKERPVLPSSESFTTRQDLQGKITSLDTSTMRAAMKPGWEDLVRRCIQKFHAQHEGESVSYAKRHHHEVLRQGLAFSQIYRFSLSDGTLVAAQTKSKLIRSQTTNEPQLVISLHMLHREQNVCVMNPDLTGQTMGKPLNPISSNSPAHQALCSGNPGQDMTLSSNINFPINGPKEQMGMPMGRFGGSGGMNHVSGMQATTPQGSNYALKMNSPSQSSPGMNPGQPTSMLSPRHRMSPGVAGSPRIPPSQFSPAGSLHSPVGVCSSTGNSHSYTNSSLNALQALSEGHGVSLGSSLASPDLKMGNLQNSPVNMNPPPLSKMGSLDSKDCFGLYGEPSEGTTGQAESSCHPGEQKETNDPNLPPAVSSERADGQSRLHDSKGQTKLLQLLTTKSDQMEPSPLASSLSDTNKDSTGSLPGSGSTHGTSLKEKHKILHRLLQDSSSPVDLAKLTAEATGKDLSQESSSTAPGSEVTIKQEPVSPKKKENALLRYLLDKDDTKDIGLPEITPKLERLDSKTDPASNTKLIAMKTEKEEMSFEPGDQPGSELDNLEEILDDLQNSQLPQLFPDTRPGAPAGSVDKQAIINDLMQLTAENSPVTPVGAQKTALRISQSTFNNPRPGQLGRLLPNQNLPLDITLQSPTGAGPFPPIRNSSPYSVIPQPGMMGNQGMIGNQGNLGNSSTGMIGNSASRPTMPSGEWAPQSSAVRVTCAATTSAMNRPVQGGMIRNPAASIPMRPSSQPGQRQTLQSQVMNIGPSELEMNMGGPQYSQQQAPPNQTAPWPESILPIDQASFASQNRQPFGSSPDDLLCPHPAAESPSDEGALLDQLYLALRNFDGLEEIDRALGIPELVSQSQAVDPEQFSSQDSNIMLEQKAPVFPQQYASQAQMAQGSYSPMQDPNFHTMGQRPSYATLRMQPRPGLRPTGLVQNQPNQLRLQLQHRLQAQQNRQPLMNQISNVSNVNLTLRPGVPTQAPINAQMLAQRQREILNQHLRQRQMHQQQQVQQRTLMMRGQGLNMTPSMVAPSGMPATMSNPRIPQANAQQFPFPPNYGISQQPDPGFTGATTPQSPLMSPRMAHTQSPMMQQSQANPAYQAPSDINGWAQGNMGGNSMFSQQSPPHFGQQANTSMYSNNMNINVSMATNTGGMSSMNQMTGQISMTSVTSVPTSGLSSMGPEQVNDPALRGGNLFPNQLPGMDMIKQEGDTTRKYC

[5] = molecular target: Peroxisome proliferator-activated receptor gamma/Nuclear receptor coactivator 3 (Homo sapiens, UniProt P37231); test: TR-FRET dose response biochemical High Throughput Screening assay for agonists of the steroid receptor coactivator 3 (SRC-3) recruitment by the peroxisome proliferator-activated receptor gamma (PPAR gamma): non-selective agonists. [Related pubchem assays: 1301 (Confirmation screen.), 1048 (Primary screen.)]; type: functional
Sequence of Peroxisome proliferator-activated receptor gamma/Nuclear receptor coactivator 3 (P37231 whole entry): as the sequence (P37231 whole entry) above
Sequence of Peroxisome proliferator-activated receptor gamma/Nuclear receptor coactivator 3 (Q9Y6Q9 whole entry, further chain): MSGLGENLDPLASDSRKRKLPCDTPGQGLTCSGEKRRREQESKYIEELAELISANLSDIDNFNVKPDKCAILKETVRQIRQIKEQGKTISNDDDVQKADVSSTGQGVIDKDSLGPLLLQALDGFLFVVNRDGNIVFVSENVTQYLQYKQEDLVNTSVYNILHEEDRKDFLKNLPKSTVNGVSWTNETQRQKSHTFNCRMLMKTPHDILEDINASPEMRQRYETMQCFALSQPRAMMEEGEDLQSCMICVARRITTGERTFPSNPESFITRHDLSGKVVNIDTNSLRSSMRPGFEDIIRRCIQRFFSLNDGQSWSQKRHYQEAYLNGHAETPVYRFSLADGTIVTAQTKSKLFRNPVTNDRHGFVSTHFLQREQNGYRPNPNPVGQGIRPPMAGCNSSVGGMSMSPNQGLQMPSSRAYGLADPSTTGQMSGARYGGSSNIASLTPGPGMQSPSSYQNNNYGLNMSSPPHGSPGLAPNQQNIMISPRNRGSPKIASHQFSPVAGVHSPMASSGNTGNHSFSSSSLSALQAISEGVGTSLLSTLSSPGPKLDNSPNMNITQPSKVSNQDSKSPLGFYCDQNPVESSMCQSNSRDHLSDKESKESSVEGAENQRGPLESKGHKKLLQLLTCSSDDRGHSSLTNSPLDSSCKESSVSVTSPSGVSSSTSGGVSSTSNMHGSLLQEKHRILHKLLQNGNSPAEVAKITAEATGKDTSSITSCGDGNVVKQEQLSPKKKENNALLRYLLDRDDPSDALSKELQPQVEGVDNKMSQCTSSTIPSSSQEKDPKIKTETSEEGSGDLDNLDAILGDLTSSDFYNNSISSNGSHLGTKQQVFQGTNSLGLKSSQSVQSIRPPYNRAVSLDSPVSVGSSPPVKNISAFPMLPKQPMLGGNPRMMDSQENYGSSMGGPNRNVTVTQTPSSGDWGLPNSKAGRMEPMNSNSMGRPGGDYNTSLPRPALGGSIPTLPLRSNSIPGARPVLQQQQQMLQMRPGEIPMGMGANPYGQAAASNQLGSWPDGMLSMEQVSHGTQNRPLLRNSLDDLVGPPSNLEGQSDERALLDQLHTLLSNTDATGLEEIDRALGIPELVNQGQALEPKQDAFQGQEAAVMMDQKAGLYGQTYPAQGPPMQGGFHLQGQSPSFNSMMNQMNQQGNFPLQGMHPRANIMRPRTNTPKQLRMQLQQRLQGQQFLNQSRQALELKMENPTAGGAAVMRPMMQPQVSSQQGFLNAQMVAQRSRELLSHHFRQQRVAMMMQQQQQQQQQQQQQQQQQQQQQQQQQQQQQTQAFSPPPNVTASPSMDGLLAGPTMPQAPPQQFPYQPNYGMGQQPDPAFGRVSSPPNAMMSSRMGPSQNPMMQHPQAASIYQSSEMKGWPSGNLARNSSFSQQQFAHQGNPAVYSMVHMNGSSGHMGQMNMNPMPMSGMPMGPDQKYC

[6] = molecular target: Peroxisome proliferator-activated receptor gamma/Nuclear receptor coactivator 1 (Homo sapiens, UniProt P37231); test: TR-FRET dose response biochemical High Throughput Screening assay for agonists of the steroid receptor coactivator 1 (SRC-1) recruitment by the peroxisome proliferator-activated receptor gamma (PPAR gamma): non-selective agonists. [Related pubchem assays (depositor defined):AID1300, AID1808, AID504735, AID631]; type: protein assay
[7] = molecular target: T5, Mannose-6-phosphate isomerase (Homo sapiens, UniProt P34949); test: PMI enzyme inhibitors, confirmation, biochemical, fluorescence intensity (AID 1535)
T5 sequence (P34949 whole entry): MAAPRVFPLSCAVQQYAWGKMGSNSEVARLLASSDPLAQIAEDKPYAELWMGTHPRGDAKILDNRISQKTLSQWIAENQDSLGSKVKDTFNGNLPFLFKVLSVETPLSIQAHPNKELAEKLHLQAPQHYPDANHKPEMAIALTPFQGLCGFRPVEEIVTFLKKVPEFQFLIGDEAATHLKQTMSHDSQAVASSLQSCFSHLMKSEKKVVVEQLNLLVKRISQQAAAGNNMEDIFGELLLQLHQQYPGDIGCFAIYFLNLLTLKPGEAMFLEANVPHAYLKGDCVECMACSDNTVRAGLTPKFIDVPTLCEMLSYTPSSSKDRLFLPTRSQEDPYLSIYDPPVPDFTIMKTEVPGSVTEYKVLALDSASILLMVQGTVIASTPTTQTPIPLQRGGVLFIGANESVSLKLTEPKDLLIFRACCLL

Phosphomannomutase 2 = molecular target: T6, Phosphomannomutase 2 (Homo sapiens, UniProt O15305); test: Counter screen SAR assay for PMM2 inhibitors via a fluorescence intensity assay. [Related pubchem assays (depositor defined):AID1545, AID1574]
T6 sequence (O15305 whole entry): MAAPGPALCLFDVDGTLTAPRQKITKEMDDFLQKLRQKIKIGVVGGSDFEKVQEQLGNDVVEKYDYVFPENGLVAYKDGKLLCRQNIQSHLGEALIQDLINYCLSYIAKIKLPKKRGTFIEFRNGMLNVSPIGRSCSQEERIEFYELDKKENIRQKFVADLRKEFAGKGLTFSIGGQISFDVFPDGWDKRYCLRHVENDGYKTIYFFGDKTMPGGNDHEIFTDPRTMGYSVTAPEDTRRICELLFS

[8] = molecular target: ATP-dependent molecular chaperone HSP82 (Candida albicans (strain WO-1) (Yeast), UniProt C4YTQ8); test: loss of DOC-induced GRE-beta-galactosidase reporter signal, dose response, Hsp90 inhibitor project, S. cerevisiae, luminescence (AID 2400); type: functional, cell-based;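 further: beta-galactosidase luminescence from glucocorticoid response element reporter as proxy for Hsp90 function; inhibitor potency where signal loss means Hsp90 inhibition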
Sequence of ATP-dependent molecular chaperone HSP82 (C4YTQ8 whole entry): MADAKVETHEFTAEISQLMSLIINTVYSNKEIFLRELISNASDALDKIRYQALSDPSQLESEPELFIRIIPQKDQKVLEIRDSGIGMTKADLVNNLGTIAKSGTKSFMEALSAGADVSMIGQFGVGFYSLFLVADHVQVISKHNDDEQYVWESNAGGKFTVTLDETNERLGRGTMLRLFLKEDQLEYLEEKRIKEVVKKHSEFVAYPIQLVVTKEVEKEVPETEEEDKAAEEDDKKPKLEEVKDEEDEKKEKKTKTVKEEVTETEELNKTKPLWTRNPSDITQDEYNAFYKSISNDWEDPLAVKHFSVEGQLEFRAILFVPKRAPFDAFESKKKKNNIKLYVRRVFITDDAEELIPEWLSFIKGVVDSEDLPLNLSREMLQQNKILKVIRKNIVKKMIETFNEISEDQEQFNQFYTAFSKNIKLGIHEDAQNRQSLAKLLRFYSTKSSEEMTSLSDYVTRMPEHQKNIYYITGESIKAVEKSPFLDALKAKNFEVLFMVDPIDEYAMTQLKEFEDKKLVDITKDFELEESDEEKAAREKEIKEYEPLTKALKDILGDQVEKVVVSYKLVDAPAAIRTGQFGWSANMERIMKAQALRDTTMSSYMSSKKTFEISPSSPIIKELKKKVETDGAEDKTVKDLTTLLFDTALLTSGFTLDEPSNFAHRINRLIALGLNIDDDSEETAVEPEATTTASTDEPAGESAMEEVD

[9] = molecular target: T7, Serine/threonine-protein phosphatase (Candida dubliniensis (strain CD36 / CBS 7987 / NCPF 3949 / NRRLY-17841) (Yeast), UniProt B9W6M3); test: calcineurin pathway inhibitors in yeast reporter, dose response, S. cerevisiae, CDRE-lacZ, luminescence, secondary (AID 2388); type: functional, cell-based;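 further: yeast reporter cells carrying a calcineurin-responsive lacZ construct stimulated with calcium chloride; luminescent beta-galactosidase reporter signal in whole cells rather than isolated phosphatase activity; potency for inhibition where a drop in reporter signal means calcineurin blockade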
T7 sequence (B9W6M3 whole entry): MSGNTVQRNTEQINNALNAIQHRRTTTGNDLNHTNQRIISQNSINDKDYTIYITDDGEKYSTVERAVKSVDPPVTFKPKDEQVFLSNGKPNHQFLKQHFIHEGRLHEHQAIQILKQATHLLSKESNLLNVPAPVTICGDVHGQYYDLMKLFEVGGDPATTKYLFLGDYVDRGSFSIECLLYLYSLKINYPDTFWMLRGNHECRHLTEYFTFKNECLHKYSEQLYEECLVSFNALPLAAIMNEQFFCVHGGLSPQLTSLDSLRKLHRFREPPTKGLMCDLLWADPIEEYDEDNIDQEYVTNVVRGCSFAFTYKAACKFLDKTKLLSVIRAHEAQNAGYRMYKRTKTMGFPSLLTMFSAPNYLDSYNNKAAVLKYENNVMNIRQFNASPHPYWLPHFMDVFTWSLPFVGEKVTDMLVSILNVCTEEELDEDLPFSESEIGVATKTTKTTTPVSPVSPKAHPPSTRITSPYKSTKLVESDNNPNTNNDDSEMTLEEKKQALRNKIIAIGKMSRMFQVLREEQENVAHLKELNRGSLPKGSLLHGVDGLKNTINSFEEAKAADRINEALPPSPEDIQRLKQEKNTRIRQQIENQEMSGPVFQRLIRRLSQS

[10] = NIH-3T3 fibroblast cytotoxicity, dose response, cytotoxicity control, cell-based, fluorescence, Alamar Blue, secondary assay (AID 2327); type: functional;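 further: NIH-3T3 mouse fibroblasts cultured with fluconazole at 8 µg/mL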
[11] = C. albicans growth with fluconazole, confirmation, fluorescence, retest (AID 2467); type: functional, cell-based
[12] = molecular target: T8, Heat shock factor protein 1 (Mus musculus, UniProt P38532); test: inhibition of MG132-induced HSE-luciferase signal, confirmation, cell-based, NIH3T3, luminescence, dose retest (AID 2382); type: functional;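 further: NIH3T3 fibroblasts with HSF1-driven luciferase reporter stressed by proteasome inhibitor MG132; luminescence from HSF1-driven luciferase expression after 8 hours of MG132 stress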
T8 sequence (P38532 whole entry): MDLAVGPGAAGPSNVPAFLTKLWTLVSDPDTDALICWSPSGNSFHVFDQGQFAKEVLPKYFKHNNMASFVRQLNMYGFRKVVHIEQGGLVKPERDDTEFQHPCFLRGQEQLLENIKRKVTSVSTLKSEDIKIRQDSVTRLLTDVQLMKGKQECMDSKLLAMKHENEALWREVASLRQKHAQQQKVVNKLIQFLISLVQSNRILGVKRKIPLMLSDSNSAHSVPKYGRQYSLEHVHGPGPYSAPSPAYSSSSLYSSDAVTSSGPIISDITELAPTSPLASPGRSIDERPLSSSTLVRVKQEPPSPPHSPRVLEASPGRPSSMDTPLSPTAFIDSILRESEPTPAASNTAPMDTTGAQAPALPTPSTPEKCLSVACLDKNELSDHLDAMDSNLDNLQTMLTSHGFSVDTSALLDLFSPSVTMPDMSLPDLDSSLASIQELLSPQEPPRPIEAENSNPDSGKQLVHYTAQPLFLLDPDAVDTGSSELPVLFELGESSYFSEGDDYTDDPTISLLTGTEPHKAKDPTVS

## CN(C)CCCN(C(=O)c1ccc(S(=O)(=O)N(C)Cc2ccccc2)cc1)c1nc2cc3c(cc2s1)OCO3
[1]
  EC50: 9.44 µM (active)
INS1
  AC50: > 120 µM (inactive)
[2]
  IC50: 5.54 µM (active)
Bcl-2-related protein A1
  IC50: > 20 µM (inactive)
[3]
  IC50: 11.5 µM (active)

## COC(=O)c1ccc(NCC(=O)Nc2cc(C)cc(C)c2)cc1
Coagulation factor XII
  IC50: > 50 µM (inactive)

## CC(C)OC(=O)CNc1nnc(S)nc1O
[4]
  EC50: 2.47 µM (active)
[5]
  EC50: 21.7 µM (not active)
[6]
  EC50: 2.28 µM (active)

## Cc1ccncc1/N=c1\ssnc1Cl
[7]
  IC50: 34 µM (active)
Phosphomannomutase 2
  IC50: > 100 µM (inactive)

## O=[N+]([O-])c1ccc2c(c1)c1ccccc1n2CCO
Coagulation factor XII
  IC50: > 50 µM (inactive)

## O=C(NCC1CCN(Cc2cccc(Cl)c2)CC1)C1CCCN(c2ncnc3c2nc2n3CCCCC2)C1 (centres undefined)
[2]
  IC50: 1.89 µM (active)
Bcl-2-related protein A1
  IC50: > 20 µM (inactive)
[3]
  IC50: 3.87 µM (active)

## CCSc1nnc(-c2ccccc2SC)o1
[4]
  EC50: 237 µM (not active)
[5]
  EC50: > 79.4 µM (not active)
[6]
  EC50: > 79.4 µM (inactive)

## Fc1ccc(-c2nnsc2Sc2ccccn2)cc1
[4]
  EC50: 11.8 µM (not active)
[5]
  EC50: 16.1 µM (not active)
[6]
  EC50: 8.31 µM (active)

## O=[N+]([O-])c1ccc(O)c(P(=O)(c2ccccc2)c2ccccc2)c1
[8]
  EC50: > 150 µM (inactive)
[9]
  EC50: > 180 µM (inactive)
[10]
  EC50: > 150 µM (inactive)
[11]
  EC50: 0.698 µM (active)

## CCCC(C(=O)NC(C)(C)C)N(C(=O)c1snc(C(N)=O)c1N)c1ccc2c(c1)OCCO2 (centres undefined)
[12]
  EC50: 1.58 µM (active)
[2]
  IC50: 10.2 µM (active)
Bcl-2-related protein A1
  IC50: > 20 µM (inactive)
[3]
  IC50: 8.3 µM (active)

## NC(=O)CSc1ncnc2c1oc1ccccc12
[4]
  EC50: > 26.5 µM (not active)
[5]
  EC50: > 79.4 µM (not active)
[6]
  EC50: 27.6 µM (inactive)

## N#Cc1c2n(c3c(=O)n(Cc4ccccc4)cnc13)CCCC2
Coagulation factor XII
  IC50: > 50 µM (inactive)

## Cc1ccc(-n2ncc3c(O)ncnc32)c(C)c1
Coagulation factor XII
  IC50: > 50 µM (inactive)
